Assays:
C1s = target: T1, C1s (Homo sapiens, UniProt P09871); experiment: anti-complement (anti-C1 esterase) activity, C1s hydrolysis of ATEE (acetyltyrosine ethyl ester); format: biochemical
T1 sequence (P09871 16-688): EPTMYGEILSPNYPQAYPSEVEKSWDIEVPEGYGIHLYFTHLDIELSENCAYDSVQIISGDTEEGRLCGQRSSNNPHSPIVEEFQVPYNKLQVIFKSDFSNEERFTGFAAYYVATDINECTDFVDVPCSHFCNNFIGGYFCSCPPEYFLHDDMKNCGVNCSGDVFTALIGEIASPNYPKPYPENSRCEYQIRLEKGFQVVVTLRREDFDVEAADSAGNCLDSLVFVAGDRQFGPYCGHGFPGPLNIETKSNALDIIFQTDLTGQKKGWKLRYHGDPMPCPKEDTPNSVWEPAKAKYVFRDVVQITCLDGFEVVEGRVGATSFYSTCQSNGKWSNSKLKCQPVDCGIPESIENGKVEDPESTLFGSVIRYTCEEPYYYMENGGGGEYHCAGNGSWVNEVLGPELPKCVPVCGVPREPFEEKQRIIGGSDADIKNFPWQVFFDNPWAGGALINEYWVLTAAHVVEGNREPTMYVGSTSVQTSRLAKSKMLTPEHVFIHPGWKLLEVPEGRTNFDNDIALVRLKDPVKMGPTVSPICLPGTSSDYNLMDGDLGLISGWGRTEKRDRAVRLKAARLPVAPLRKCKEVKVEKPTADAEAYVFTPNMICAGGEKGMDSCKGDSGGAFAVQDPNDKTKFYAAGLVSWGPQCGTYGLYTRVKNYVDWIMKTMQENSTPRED
Procedure: The anti-C1 esterase (C1r, C1s) activity was determined according to the method of Okamura et al. (Biochem. Biophys. Acta (1973), volume 295, pages 252-257). […] The values for C1s represent molar concentrations (IC50) of test compounds which inhibit 50% of the activity of C1s to hydrolyze ATEE (acetyltyrosine ethyl ester).

Masugi's nephritis = experiment: Effect of TO-195 on Masugi's nephritis; format: in vivo, rat; settings: oral
C1r = target: T2, C1r (Homo sapiens, UniProt P00736); experiment: anti-complement (anti-C1 esterase) activity, C1r hydrolysis of AAME (acetyl-arginine methyl ester); format: biochemical
T2 sequence (P00736 18-705): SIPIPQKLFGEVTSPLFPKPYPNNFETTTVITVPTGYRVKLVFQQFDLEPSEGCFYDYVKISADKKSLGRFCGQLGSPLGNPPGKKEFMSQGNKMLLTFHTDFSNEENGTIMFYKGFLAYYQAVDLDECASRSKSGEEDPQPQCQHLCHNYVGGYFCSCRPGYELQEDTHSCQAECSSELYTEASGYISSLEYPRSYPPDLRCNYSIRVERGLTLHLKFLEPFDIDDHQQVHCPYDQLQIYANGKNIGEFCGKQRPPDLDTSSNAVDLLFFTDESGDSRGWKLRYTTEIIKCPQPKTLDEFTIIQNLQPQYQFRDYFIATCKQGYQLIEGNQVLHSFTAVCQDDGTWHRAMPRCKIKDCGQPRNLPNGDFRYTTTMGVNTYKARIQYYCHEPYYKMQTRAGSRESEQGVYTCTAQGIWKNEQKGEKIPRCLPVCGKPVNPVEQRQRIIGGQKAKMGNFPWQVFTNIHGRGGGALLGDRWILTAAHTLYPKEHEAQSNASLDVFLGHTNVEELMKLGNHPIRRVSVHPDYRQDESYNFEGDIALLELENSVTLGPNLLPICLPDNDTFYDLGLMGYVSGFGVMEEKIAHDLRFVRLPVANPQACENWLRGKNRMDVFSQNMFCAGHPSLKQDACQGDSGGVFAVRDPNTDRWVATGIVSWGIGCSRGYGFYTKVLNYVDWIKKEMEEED

[1] = monkey subacute toxicity test; format: in vivo; settings: oral
Procedure: The compound of Example 22 was tested in three groups (five monkeys per group) of monkeys at dosages of (1) 3 mg/kg/day, (2) 30 mg/kg/day, and (3) 300 mg/kg/day; the compound was administered orally (dose volume was 2 ml/kg) by gavage once a day for 13 weeks. Administration was followed by 20 ml sterile water per animal. Control monkeys received only the vehicle (sterile water for injection, U.S.P.) on the same regimen as the experimental groups. All doses were administered using a 18 French rubber catheter attached to a syringe.

Cl.N=C(N)c1ccc2cc(OC(=O)c3ccc(CNC(=O)CCCC(=O)O)o3)ccc2c1 [Example 22, 6-Amidino-2-naphthyl 5-(4-carboxybutyrylaminomethyl)furan-2-carboxylate hydrochloride]
C1s inhibition (in words) (C1s): inhibitor | IC50 (C1s; hydrolysis of ATEE, read-out: Cls: molar concentration inhibiting 50% of C1s activity (IC50)): 250 nM | urinary protein excretion (in words) (Masugi's nephritis; 3, 10, or 30 mg/kg×2/day, from 2 days before through day 10 after nephrotoxin): significantly decreased urinary protein excretion | Light microscopic examination of the glomeruli (in words) (Masugi's nephritis; 10 and 30 mg/kg×2/day, compared to control group): significant anti-nephritic effect | urinary protein excretion (in words) (Masugi's nephritis; twice a day from day 4 to day 10 after nephrotoxin): significantly decreased urinary protein excretion | C1r inhibition (in words) (C1r): inhibitor | inhibition at 10 µM (C1r; at a concentration of 1 × 10^-5 M, read-out: Clr: percentage inhibition): 49% | general conditions, biochemical examination, and survival (in words) ([1]; 13 weeks, up to 300 mg/kg/day): no changes were found | toxicity (in words) ([1]; three months, even at 300 mg/kg): no toxicity was recognized

— patent publication US5532267A, “Amidinonaphthyl furancarboxylate derivatives and acid addition salts therof” (Torii & Co., Ltd., priority 1992, dated 1996)
